Earlier results in article PMC5281649 (European Journal of Nuclear Medicine and Molecular Imaging, 2016).

Legend:
[1] = in vivo; cited from earlier work
[2] = parameters: method as in doi:10.1016/S0924-977X(99)80017-0; conditions: doses providing full blockade of the enzyme; cited from earlier work
[3] = cited from earlier work

| Structure (SMILES) | Reason development not continued [1] | Effect on cognition and functionality in patients with AD [2] | Effect in 2-year trial in patients with moderate AD [3] | Long-term effect on cognition in patients with moderate-to-severe AD [3] |
| --- | --- | --- | --- | --- |
| NCCNC(=O)c1ccc(Cl)cn1 [lazabemide] | hepatotoxic liability | significant improvement in cognition and functionality |  |  |
| C#CCN(C)[C@H](C)Cc1ccccc1 [selegiline] |  |  | may delay functional deterioration and disease progression | no long-term benefit on cognition |
